Values joined by “and” are separate entries in the source; they are usually repeats but may differ in a detail not shown here. Equal values may be shown once. Read-outs that look alike come from different tables or passages of the source. Numbered stars: 1 amine (or outer) side, 2 acyl side, 3 side chain; on linkers, the order of the positions; unused ones are H or OH. Bridge positions count the residues as written; N and C are the ends. Square brackets hold non-standard residues; d marks the D form. Peptide text beside a SMILES is read from it. * marks the point of attachment. X11 = O=C([C@H](Cc1c[nH]c2cc(C/C=C/c3ccccc3)ccc12)N[*:1])[*:2]; X10 = C=C(C)/C=C/C(C)n1cc(C[C@H](N[*:1])C(=O)[*:2])c2ccccc21; X12 = C=C(C)/C=C/Cc1[nH]c2ccccc2c1C[C@H](N[*:1])C(=O)[*:2]; X8 = C=CC1(n2cc(C[C@H](N[*:1])C(=O)[*:2])c3ccccc32)CCCCC1; X2 = O=C([C@H](Cc1cn(CC=C2CCCCC2)c2ccccc12)N[*:1])[*:2]; X6 = CC/C(C)=C/Cn1cc(C[C@H](N[*:1])C(=O)[*:2])c2ccccc21; X4 = CCC(=CCn1cc(C[C@H](N[*:1])C(=O)[*:2])c2ccccc21)CC; X7 = O=C([C@H](Cc1cn(CC2=CCCCC2)c2ccccc12)N[*:1])[*:2]; X9 = CC(C)=CCn1cc(C[C@H](N[*:1])C(=O)[*:2])c2ccccc21; Glu(3R-Me) = C[C@H](CC(=O)O)[C@H](N)C(=O)O; Kyn = Nc1ccccc1C(=O)C[C@H](N)C(=O)O; Decanoyl = CCCCCCCCCC(=O)*; Orn = NCCC[C@H](N)C(=O)O
Columns and labels:
E. faecalis (R712) = conditions: DapR, BEI HM-335; MIC90, broth microdilution, MHB + 50 mg L^−1 calcium, 35 °C, 22 h, A600, triplicate
S. aureus (ATCC 25923) = conditions: DapS strain; MIC90, broth microdilution, MHB + 50 mg L^−1 calcium, inoculum 1×10^5–5×10^5 CFU/mL, 35 °C, 22 h, A600, triplicate; converted from μM
[1] = tested on: S. aureus (SAUSA300_1715 NE1656); conditions: DapR, strain JE2 transposon mutant NE1656, BEI NR-48198; MIC90, broth microdilution, MHB + 50 mg L^−1 calcium, 35 °C, 22 h, A600, triplicate
S. aureus (hVISA, SR220) = conditions: DapS, VISA, BEI NR-50512; MIC90, broth microdilution, MHB + 50 mg L^−1 calcium, 35 °C, 22 h, A600, triplicate
[2] = tested on: S. aureus (SAUSA300_1713 NE573); conditions: DapR, strain JE2 transposon mutant NE573, BEI NR-47116; MIC90, broth microdilution, MHB + 50 mg L^−1 calcium, 35 °C, 22 h, A600, triplicate
E. faecalis (S613) = conditions: DapS, BEI HM-334, MIC90, broth microdilution, MHB + 50 mg L^−1 calcium, 35 °C, 22 h, A600, triplicate
[3] = tested on: E. faecalis (hVRE, ATCC 700802); conditions: vancomycin-resistant Enterococcus; Table 1, Fig. S1

Row | SMILES | MIC (E. faecalis (R712)) [µg/mL] | MIC (S. aureus (ATCC 25923)) [µg/mL] | MIC [1] [µg/mL] | MIC (S. aureus (hVISA, SR220)) [µg/mL] | MIC [2] [µg/mL] | MIC (E. faecalis (S613)) | fold enhanced activity (compared with Dap) [3] | MIC (E. faecalis (S613); listed as Dap)
1 | C=CC1(n2cc(C[C@H](NC(=O)CCCCCCCCC)C(=O)N[C@H](CC(N)=O)C(=O)N[C@@H](CC(=O)O)C(=O)N[C@@H]3C(=O)NCC(=O)N[C@@H](CCCN)C(=O)N[C@@H](CC(=O)O)C(=O)N[C@H](C)C(=O)N[C@@H](CC(=O)O)C(=O)NCC(=O)N[C@H](CO)C(=O)N[C@@H]([C@H](C)CC(=O)O)C(=O)N[C@@H](CC(=O)c4ccccc4N)C(=O)O[C@@H]3C)c3ccccc32)CCCCC1 [compound 50, N1R-19-Dap] (Decanoyl-[X8][dN]DTG[Orn]D[dA]DG[dS][Glu(3R-Me)][Kyn]; ester 4-C) | 17.3 |  |  |  |  |  |  | 
2 | C=C(C)/C=C/C(C)n1cc(C[C@H](NC(=O)CCCCCCCCC)C(=O)N[C@H](CC(N)=O)C(=O)N[C@@H](CC(=O)O)C(=O)N[C@@H]2C(=O)NCC(=O)N[C@@H](CCCN)C(=O)N[C@@H](CC(=O)O)C(=O)N[C@H](C)C(=O)N[C@@H](CC(=O)O)C(=O)NCC(=O)N[C@H](CO)C(=O)N[C@@H]([C@H](C)CC(=O)O)C(=O)N[C@@H](CC(=O)c3ccccc3N)C(=O)O[C@@H]2C)c2ccccc21 (stereo partly drawn) [compound 48, N1R-18-Dap] (Decanoyl-[X10][dN]DTG[Orn]D[dA]DG[dS][Glu(3R-Me)][Kyn]; ester 4-C) | 17.1 | 17.1 |  |  |  |  |  | 
3 | CCCCCCCCCC(=O)N[C@@H](Cc1cn(CC=C2CCCCC2)c2ccccc12)C(=O)N[C@H](CC(N)=O)C(=O)N[C@@H](CC(=O)O)C(=O)N[C@@H]1C(=O)NCC(=O)N[C@@H](CCCN)C(=O)N[C@@H](CC(=O)O)C(=O)N[C@H](C)C(=O)N[C@@H](CC(=O)O)C(=O)NCC(=O)N[C@H](CO)C(=O)N[C@@H]([C@H](C)CC(=O)O)C(=O)N[C@@H](CC(=O)c2ccccc2N)C(=O)O[C@@H]1C [compound 51, N1-19-Dap] (Decanoyl-[X2][dN]DTG[Orn]D[dA]DG[dS][Glu(3R-Me)][Kyn]; ester 4-C) | 5.2 |  | 2.6 | 1.1 | 1.3 | 1.3 µg/mL | 5–15 fold | 
4 | CCCCCCCCCC(=O)N[C@@H](Cc1c[nH]c2cc(C/C=C/c3ccccc3)ccc12)C(=O)N[C@H](CC(N)=O)C(=O)N[C@@H](CC(=O)O)C(=O)N[C@@H]1C(=O)NCC(=O)N[C@@H](CCCN)C(=O)N[C@@H](CC(=O)O)C(=O)N[C@H](C)C(=O)N[C@@H](CC(=O)O)C(=O)NCC(=O)N[C@H](CO)C(=O)N[C@@H]([C@H](C)CC(=O)O)C(=O)N[C@@H](CC(=O)c2ccccc2N)C(=O)O[C@@H]1C [compound 54, C6-22-Dap] (Decanoyl-[X11][dN]DTG[Orn]D[dA]DG[dS][Glu(3R-Me)][Kyn]; ester 4-C) | 8.7 |  |  |  |  |  |  | 
5 | CCCCCCCCCC(=O)N[C@@H](Cc1cn(C/C=C(\C)CC)c2ccccc12)C(=O)N[C@H](CC(N)=O)C(=O)N[C@@H](CC(=O)O)C(=O)N[C@@H]1C(=O)NCC(=O)N[C@@H](CCCN)C(=O)N[C@@H](CC(=O)O)C(=O)N[C@H](C)C(=O)N[C@@H](CC(=O)O)C(=O)NCC(=O)N[C@H](CO)C(=O)N[C@@H]([C@H](C)CC(=O)O)C(=O)N[C@@H](CC(=O)c2ccccc2N)C(=O)O[C@@H]1C [compound 42, N1-6-Dap] (Decanoyl-[X6][dN]DTG[Orn]D[dA]DG[dS][Glu(3R-Me)][Kyn]; ester 4-C) | 17.0 |  |  | 0.5 |  | 1.1 µg/mL | 5–15 fold | 
6 | C=C(C)/C=C/Cc1[nH]c2ccccc2c1C[C@H](NC(=O)CCCCCCCCC)C(=O)N[C@H](CC(N)=O)C(=O)N[C@@H](CC(=O)O)C(=O)N[C@@H]1C(=O)NCC(=O)N[C@@H](CCCN)C(=O)N[C@@H](CC(=O)O)C(=O)N[C@H](C)C(=O)N[C@@H](CC(=O)O)C(=O)NCC(=O)N[C@H](CO)C(=O)N[C@@H]([C@H](C)CC(=O)O)C(=O)N[C@@H](CC(=O)c2ccccc2N)C(=O)O[C@@H]1C [compound 46, C2R-16-Dap] (Decanoyl-[X12][dN]DTG[Orn]D[dA]DG[dS][Glu(3R-Me)][Kyn]; ester 4-C) |  |  |  | 17.0 |  |  |  | 
7 | CCCCCCCCCC(=O)N[C@@H](Cc1c[nH]c2ccccc12)C(=O)N[C@H](CC(N)=O)C(=O)N[C@@H](CC(=O)O)C(=O)N[C@@H]1C(=O)NCC(=O)N[C@@H](CCCN)C(=O)N[C@@H](CC(=O)O)C(=O)N[C@H](C)C(=O)N[C@@H](CC(=O)O)C(=O)NCC(=O)N[C@H](CO)C(=O)N[C@@H]([C@H](C)CC(=O)O)C(=O)N[C@@H](CC(=O)c2ccccc2N)C(=O)O[C@@H]1C [DAP, Daptomycin] | >32.4 |  | 16.2 | 4.0 | 16.2 | 16.2 µg/mL |  | ~ 16 μg mL^−1
8 | CCCCCCCCCC(=O)N[C@@H](Cc1cn(CC=C(C)C)c2ccccc12)C(=O)N[C@H](CC(N)=O)C(=O)N[C@@H](CC(=O)O)C(=O)N[C@@H]1C(=O)NCC(=O)N[C@@H](CCCN)C(=O)N[C@@H](CC(=O)O)C(=O)N[C@H](C)C(=O)N[C@@H](CC(=O)O)C(=O)NCC(=O)N[C@H](CO)C(=O)N[C@@H]([C@H](C)CC(=O)O)C(=O)N[C@@H](CC(=O)c2ccccc2N)C(=O)O[C@@H]1C [compound 40, N1-Trp-prenyl-Dap] (Decanoyl-[X9][dN]DTG[Orn]D[dA]DG[dS][Glu(3R-Me)][Kyn]; ester 4-C) | 33.7 |  |  | 0.5 |  |  |  | 
9 | CCCCCCCCCC(=O)N[C@@H](Cc1cn(CC2=CCCCC2)c2ccccc12)C(=O)N[C@H](CC(N)=O)C(=O)N[C@@H](CC(=O)O)C(=O)N[C@@H]1C(=O)NCC(=O)N[C@@H](CCCN)C(=O)N[C@@H](CC(=O)O)C(=O)N[C@H](C)C(=O)N[C@@H](CC(=O)O)C(=O)NCC(=O)N[C@H](CO)C(=O)N[C@@H]([C@H](C)CC(=O)O)C(=O)N[C@@H](CC(=O)c2ccccc2N)C(=O)O[C@@H]1C [compound 53, N1-20-Dap] (Decanoyl-[X7][dN]DTG[Orn]D[dA]DG[dS][Glu(3R-Me)][Kyn]; ester 4-C) | >17.1 |  | 17.1 |  | 17.1 | 17.1 µg/mL |  | 
10 | CCCCCCCCCC(=O)N[C@@H](Cc1cn(CC=C(CC)CC)c2ccccc12)C(=O)N[C@H](CC(N)=O)C(=O)N[C@@H](CC(=O)O)C(=O)N[C@@H]1C(=O)NCC(=O)N[C@@H](CCCN)C(=O)N[C@@H](CC(=O)O)C(=O)N[C@H](C)C(=O)N[C@@H](CC(=O)O)C(=O)NCC(=O)N[C@H](CO)C(=O)N[C@@H]([C@H](C)CC(=O)O)C(=O)N[C@@H](CC(=O)c2ccccc2N)C(=O)O[C@@H]1C [compound 44, N1-7-Dap] (Decanoyl-[X4][dN]DTG[Orn]D[dA]DG[dS][Glu(3R-Me)][Kyn]; ester 4-C) | 4.3 |  | 0.5 | 0.5 |  | 0.3 to 0.6 µg/mL and 0.5 µg/mL |  | 

Reference: article PMC7447621, “Chemoenzymatic synthesis of daptomycin analogs active against daptomycin-resistant strains” (Applied Microbiology and Biotechnology, 2020)
